Assay results from the RepoRT retention time repository.

Test: HILIC, Waters ACQUITY UPLC BEH Amide, 100 × 2.1 mm, 1.7 µm; A: water + 0.125% formic acid + 10 mM ammonium formate; B: 5% water + 95% acetonitrile + 0.125% formic acid + 10 mM ammonium formate; gradient (min/%B) 0/100 2/100 7.7/70 9.5/40 10.25/30 12.75/100 17/100
Details: stereoisomer not certain

Compound	LC retention time [min]
CNc1ncnc2c1ncn2C1OC(CO)C(O)C1O (configuration not stated) [6-Methyladenosine]	3.56
Nc1cc(CC(N)C(=O)O)ccc1O (configuration not stated) [3-Aminotyrosine]	8.06
C[C@](N)(Cc1cnc[nH]1)C(=O)O [alpha-Methylhistidine]	8.68
CCS(=O)(=O)CCn1c([N+](=O)[O-])cnc1C [Tinidazole]	1.04
CC(C)=CCNc1ncnc2c1ncn2C1OC(CO)C(O)C1O (configuration not stated) [N6-Isopentenyladenosine]	1.48
COc1ccc(NC=O)c(C(=O)CCNC(C)=O)c1 [N-gamma-Acetyl-N-2-formyl-5-methoxykynurenamine]	1.32
CC(C)C(=O)C(=O)O [Ketoisovaleric acid]	2.84
CC(C)(N)Cc1ccccc1 [Phentermine]	6.23
N#Cc1ccc(C(c2ccc(C#N)cc2)n2cncn2)cc1 [Letrozol]	0.98
NCC1CCC(C(=O)Oc2ccc(CCC(=O)O)cc2)CC1 (configuration not stated) [Cetraxate]	5.29
NC(CCC(=O)NC(Cc1ccc(O)cc1)C(=O)O)C(=O)O (configuration not stated) [gamma-Glutamyltyrosine]	8.52
NC(Cc1ccc(O)c(O)c1)C(=O)O (configuration not stated) [3,4-Dihydroxyphenylalanine]	8.31
O=C1CCNC(=O)N1 [5,6-Dihydrouracil]	1.77
NC(=O)CCC(NC(=O)CCC(N)C(=O)O)C(=O)O (configuration not stated) [gamma-Glutamylglutamine]	9.55
NC(=O)CC(N)C(=O)O (configuration not stated) [Asparagine]	8.81
CN1CCCC1c1cccnc1 (configuration not stated) [Nicotine]	5.34
O=C(O)C(O)c1ccc(O)c(O)c1 (configuration not stated) [3,4-Dihydroxymandelic acid]	2.3
C#CC1(O)CCC2C3C(C)CC4=C(CCC(=O)C4)C3CCC21C (configuration not stated) [Tibolone]	1
CCN1CCCC1CNC(=O)c1cc(S(=O)(=O)CC)c(N)cc1OC (configuration not stated) [Amisulpride]	2.76
O=c1ccn(C2CC(O)C(COP(=O)(O)O)O2)c(=O)[nH]1 (configuration not stated) [Deoxyuridine monophosphate]	8.25
COc1ccc(CC(C)NCC(O)c2ccc(O)c(NC=O)c2)cc1 (configuration not stated) [Formoterol]	5.18
CC(N)C(=O)NC(C(=O)O)C(C)C (configuration not stated) [Ala-Val]	7.66
CCOP(=O)(OCC)Oc1ccc([N+](=O)[O-])cc1 [Paraoxon]	1.02

Compound	LC retention time [min]
CNC(=C[N+](=O)[O-])NCCSCc1ccc(CN(C)C)o1 [Ranitidine]	5.18
Cc1ccc(C(C)C)c(O)c1 [Thymol]	1.53
O=C(O)Cc1c[nH]c2ccc(O)cc12 [5-Hydroxy-3-indoleacetic acid]	1.78
Cc1cc(O)cc(=O)o1 [4-Hydroxy-6-methyl-2-pyrone]	1.47
Cc1cc2nc[nH]c2cc1C [5,6-Dimethylbenzimidazole]	1.82
CC1CCCC(O)CCCCCc2cc(O)cc(O)c2C(=O)O1 (configuration not stated) [Zeranol]	1.11
OCC1OC(OCC2OC(O)C(O)C(O)C2O)C(O)C(O)C1O (configuration not stated) [Isomaltose]	7.19
NC(N)=NCCCC(N)C(=O)NC(CO)C(=O)O (configuration not stated) [Arg-Ser]	9.9
CC(N)Cc1ccccc1 (configuration not stated) [Amphetamine]	4.6
Cc1ncc(CO)c(C(=O)O)c1O [4-Pyridoxic acid]	2.66
Cn1cc(C2OC(CO)C(O)C2O)c(=O)[nH]c1=O (configuration not stated) [1-Methylpseudouridine]	4.99
CC(C)c1ccc2c(c1)c(SC(C)(C)C)c(CC(C)(C)C(=O)O)n2Cc1ccc(Cl)cc1 [MK-886]	0.96
CN(C)CCc1c[nH]c2ccc(CC3COC(=O)N3)cc12 (configuration not stated) [Zolmitriptan]	4.8
CC1OC(OCC2OC(Oc3c(-c4ccc(O)cc4)oc4cc(O)cc(O)c4c3=O)C(O)C(O)C2O)C(O)C(O)C1O (configuration not stated) [Kaempferol-3-O-rutinoside]	6.09
Cc1cccc(C)c1NC(=O)C1CCCCN1C (configuration not stated) [Mepivacaine]	2.96
COc1cc(-c2oc3cc(O)cc(O)c3c(=O)c2OC2OC(COC3OC(C)C(O)C(O)C3O)C(O)C(O)C2O)ccc1O (configuration not stated) [Isorhamnetin-3-O-rutinoside]	6.02
CCN(CC)CC(=O)Nc1c(C)cccc1C [Lidocaine]	1.97
CCNC(=O)CCC(N)C(=O)O (configuration not stated) [Theanine]	7.66
O=C(O)c1cc(=O)c2ccccc2[nH]1 [Kynurenic acid]	6.15
O=S(=O)(O)CCNC(CO)(CO)CO [TES]	7.7
COC1C(O)C(CO)OC1n1cc(C)c(N)nc1=O (configuration not stated) [2'-O-Methyl-5-methylcytidine]	4.93
Nc1ncnc2c1ncn2C1CC(O)C(COP(=O)(O)O)O1 (configuration not stated) [2'-Deoxyadenosine-5'-monophosphate]	8.63
CC(C)CC(NC(=O)C(O)C(N)Cc1ccccc1)C(=O)O (configuration not stated) [Bestatin]	5.98

Compound	LC retention time [min]
C[Si](C)(C)CCC(=O)O [3-Trimethylsilylpropionic acid]	5.64
C=CC(C)(O)CCC=C(C)C (configuration not stated) [Linalool]	0.97
Cc1cc2nc3c(=O)[nH]c(=O)nc-3n(CC(O)C(O)C(O)COP(=O)(O)OP(=O)(O)OCC3OC(n4cnc5c(N)ncnc54)C(O)C3O)c2cc1C (configuration not stated)	9.52
CNCCCCOc1ccccc1Cc1ccccc1 [Bifemelane]	2.46
CNC(Cc1cnc[nH]1)C(=O)O (configuration not stated) [N-Methylhistidine]	9.47
CC1CCN(CCCC(=O)c2ccc(F)cc2)CC1 [Melperone]	2.12
Cc1cn(C2OC(CO)C(O)C2O)c(=O)[nH]c1=O (configuration not stated) [5-Methyluridine]	4.19
CC(C)(C#N)c1cc(Cn2cncn2)cc(C(C)(C)C#N)c1 [Anastrozole]	0.98
NC(CCC(=O)NC(CSSCC(N)C(=O)O)C(=O)NCC(=O)O)C(=O)O [L-Cysteine-glutathione disulfide]	10.2
CN1CCN2c3ncccc3Cc3ccccc3C2C1 (configuration not stated) [Mirtazapine]	3.08
O=C(O)C1CCC(C(=O)O)CC1 (configuration not stated) [1,4-Cyclohexanedicarboxylic acid]	1.56
CNC1CC(c2ccc(Cl)c(Cl)c2)c2ccccc21 (configuration not stated) [Indatraline]	2.88
CC12Cc3cn[nH]c3CC1CCC1C2CCC2(C)C1CCC2(C)O (configuration not stated) [Stanozolol]	1.19
CN1C2CCC1C(C(=O)O)C(O)C2 (configuration not stated) [Ecgonine]	7.61
Nc1c2c(nc3ccccc13)CCCC2 [Tacrine]	3.86
NCCO [Ethanolamine]	7.15
CNC(C)C(=O)O (configuration not stated) [N-Methylalanine]	7.67
O=c1ncc(F)c[nH]1 [5-Fluro-2-pyrimidone]	1.77
CC(O)(CS(=O)(=O)c1ccc(F)cc1)C(=O)Nc1ccc(C#N)c(C(F)(F)F)c1 (configuration not stated) [Bicalutamide]	0.99
O=C(O)c1cccnc1C(=O)O [Quinolinic acid]	2.16
O=C1CCC(C(=O)N2CSCC2C(=O)O)N1 (configuration not stated) [Pidotimod]	7.3
CC(=O)NC(CC(=O)O)C(=O)NC(CCC(=O)O)C(=O)O (configuration not stated) [N-Acetyl-Asp-Glu]	8.11
Cc1cn(C2OC(CO)CC2O)c(=O)[nH]c1=O (configuration not stated) [5-Methyl-3-deoxyuridine]	2.6

Compound	LC retention time [min]
CC(=O)SCC(Cc1ccccc1)C(=O)NCC(=O)OCc1ccccc1 (configuration not stated) [Racecadotril]	0.95
Cn1c(=O)c2c([nH]c(=O)n2C)n(C)c1=O [1,3,7-Trimethyluric acid]	1.83
CC(=O)C1(O)Cc2c(O)c3c(c(O)c2C(OC2CC(N)C(O)C(C)O2)C1)C(=O)c1ccccc1C3=O (configuration not stated) [Idarubicin]	5.42
O=C(O)CCC(=O)O [Succinic acid]	4.46
CNCCCCC(N)C(=O)O (configuration not stated) [N-Methyllysine]	9.36
COc1ccc2[nH]cc(CCNC(C)=O)c2c1 [Melatonin]	1.24
CCCC(=O)OC(CC(=O)[O-])C[N+](C)(C)C [(R)-Butyrylcarnitine]	5.77
CC1CC2C3CC(F)C4=CC(=O)C(Cl)=CC4(C)C3(F)C(O)CC2(C)C1(O)C(=O)CO (configuration not stated) [Halometasone]	1.12
CN1CCC23CCCCC2C1Cc1ccc(O)cc13 (configuration not stated) [Dextrorphan]	3.87
CC(C)CC(N)C(=O)O (configuration not stated) [Leucine]	7.08
CCc1ccc(CCOc2ccc(CC3SC(=O)NC3=O)cc2)nc1 (configuration not stated) [Pioglitazone]	1.11
O=C1N(c2ccccc2)c2ccccc2C1(Cc1ccncc1)Cc1ccncc1 [Linopirdine]	1.17
CCCN1CC(CSC)CC2c3cccc4[nH]cc(c34)CC21 (configuration not stated) [Pergolide]	2.41
OCc1cccnc1 [3-Pyridinemthanol]	1.41
COc1cc(C=O)ccc1O [Vanillin]	1.15
Cc1occc(=O)c1O [Maltol]	1.32
C[N+](C)(C)CCOP(=O)([O-])OCC(O)CO (configuration not stated) [Glycerophosphocholine]	8.67
NC(N)=NCCCC(NC(=O)C(N)CCC(=O)O)C(=O)O (configuration not stated) [Glu-Arg]	9.9
O=C(O)CC1C(=O)Nc2ccccc21 (configuration not stated) [(2-oxo-2,3-dihydro-1H-indol-3-yl)acetic acid]	2.02
NCCc1cnc[nH]1 [Histamine]	8.29
Nc1nc(Cl)nc2c1ncn2C1OC(CO)C(O)C1O (configuration not stated) [2-Chloroadenosine]	2.69
O=C(CCCN1CC=C(n2c(=O)[nH]c3ccccc32)CC1)c1ccc(F)cc1 [Droperidol]	3.48
O=C(O)CCc1ccccc1 [Hydrocinnamic acid]	8.71
